The test system of one data set is caspase-3 in 22Rv1 cells. Nature of the data set: Western blotting, caspase-3 cleavage. It is filed as cell-based, human. The following applies: 22Rv1, 48 h after drug exposure. As to the method:
We examined several time points, specifically, 15 min, 2 h, and 48 h (Figure 6).
Figure 6 Validation of kinome analysis data. 22Rv1 cells were treated with 1 µM or 10 µM of NB for the indicated time. The protein expression was analyzed by Western blotting using total protein load equal to 30 µg/slot. α-Tubulin was used as a loading control.
The Western blot assay was executed as previously described: 1 × 10^6 cells were seeded in Petri dishes (ø 6 cm, 5 mL/dish) and incubated overnight. On the next day, the cells were treated with the compounds in fresh culture media (5 mL/dish) for the indicated time. Next, cells were harvested with a cell scraper and lysed in lysis buffer including protease and phosphatase inhibitors cocktail (Roche, Mannheim, Germany). Cell debris were removed from the protein lysates via centrifugation. Afterwards, the cell-free protein mixtures were separated in gradient ready-made Mini-PROTEAN® TGX Stain-Free^TM gels (Bio-Rad, Hercules, CA, USA) using SDS-PAGE (sodium dodecylsulfate polyacrylamide gel electrophoresis). Then, the proteins were blotted onto ø 0.2 µm pore PVDF membrane. The membrane was blocked and consequently treated with primary and secondary antibodies for protein detection. The signals were detected using the ECL chemiluminescence system (Thermo Scientific, Rockford, IL, USA).
(A western blot detects proteins with antibodies after separation by electrophoresis.)

The test system of the next data set is Artemia salina. More on the design: method as in PMID 26039736. Particulars: cited from earlier work.
The subject of a further data set is VCaP. Briefly: MTT assay, cell viability. It is filed as cell-based. Particulars: Homo sapiens, 48 h of treatment, mean ± SD. From the text:
(§1) To examine the anticancer potential and selectivity of NB, we used a panel of six human prostate cancer cell lines, harboring different levels of treatment resistance to representatively reflect the heterogeneity of the disease. […] Additionally, four human noncancer cells lines were utilized in order to determine the selectivity of NB towards prostate cancer cells, i.e., prostate noncancer PNT2 and RWPE-1 cells, human embryonic kidney HEK 293T cells, and human fibroblasts MRC-9. The different cell lines were treated with NB and the cell viability was examined using MTT assay (Figure 1). The mean IC50 of NB and docetaxel (used as a reference substance) in noncancerous cell lines was divided by the mean IC50 in the prostate cancer cell lines to determine the selectivity index (SI).
(§2) The MTT assay was used to monitor the effect of the drugs on cell viability in terms of metabolic activity, as previously reported. First, preincubation of the cells in 96-well plates (6 × 10^3 cells/well in 100 μL/well) was performed overnight in the correspondent culture medium. Next, the medium was exchanged for fresh medium containing the investigated compounds or a vehicle (100 μL/well). Cells were then incubated for 48 h, unless otherwise stated. Then, 10 μL/well of 3-(4,5-dimethylthiazol-2-yl)-2,5-diphenyltetrazolium bromide reagent (MTT, 5 mg/mL) were added. After 2–4 h of additional incubation the media was removed, and the plates were dried. Finally, 50 μL/well of DMSO were added to solve the formed formazan crystals produced by the metabolic active cells and Infinite F200PRO reader (TECAN, Männedorf, Switzerland) was used to measure the cell viability. The results were proceeded with a GraphPad Prism software v.9.1.1 (GraphPad Software, San Diego, CA, USA). Cells treated with the solvent of the drugs alone were used as a control (100% alive cells). The effect of the drugs on cell viability is represented as IC50.
(Formazan colour is commonly taken as a measure of viable cells.)

Another data set relates to MRC-9. Briefly: MTT assay, cell viability. It is filed as cell-based. Particulars: Homo sapiens, MRC9, MRC-9, 48 h of treatment, mean ± SD.
Source text: as §1, §2

For the next data set, the system named is 22Rv1. Briefly: MTT assay, cell viability. It is filed as cell-based. Particulars: Homo sapiens, 22Rv1, 48 h of treatment, mean ± SD.
Source text: as §1, §2

The subject of the next data set is DU145. Nature of the data set: MTT assay, cell viability. It is filed as cell-based. Particulars: Homo sapiens, DU-145, DU145, 48 h of treatment, mean ± SD.
Source text: as §1, §2

The test system of the next data set is PC3. Nature of the data set: MTT assay, cell viability. It is filed as cell-based. The following applies: Homo sapiens, PC-3, PC3, 48 h of treatment, mean ± SD.
Source text: as §1, §2

A further data set relates to LNCaP. Briefly: MTT assay, cell viability. It is filed as cell-based. The following applies: Homo sapiens, 48 h of treatment, mean ± SD.
Source text: as §1, §2

The next data set relates to HEK293. Nature of the data set: MTT assay, cell viability. It is filed as cell-based. The following applies: Homo sapiens, HEK293, 48 h of treatment, mean ± SD.
Source text: as §1, §2

In another data set the test system is PNT2. Nature of the data set: MTT assay, cell viability. It is filed as cell-based. Particulars: Homo sapiens, PNT2, 48 h of treatment, mean ± SD.
Source text: as §1, §2

The next data set has as its system RWPE-1. Briefly: MTT assay, cell viability. It is filed as cell-based. Particulars: Homo sapiens, RWPE-1, 48 h of treatment, mean ± SD.
Source text: as §1, §2

For another data set, the system named is splenocytes. Also on record: method as in PMID 27355960. Particulars: cited from earlier work.
A further data set deals with 22Rv1 cells. Briefly: Drug combination study NB with MAPK inhibitors, MTT assay, SynergyFinder 2.0. It is filed as cell-based. The following applies: Homo sapiens, 22Rv1, 24 h, 24 h; for inhibition at 0.8 µM: 22Rv1, NB alone 0.8 μM; for inhibition at 3.1 µM: 22Rv1, NB alone 3.1 μM; for inhibition at 12.5 µM: 22Rv1, NB alone 12.5 μM; for inhibition at 50 µM: 22Rv1, NB alone 50 μM. From the text:
Whether activation of MAPKs contribute to cell death or survival depends not only on the cellular context, but also on the nature of the activating stimuli. Thus, to reveal the function of JNK1/2 and p38 in the anticancer effect of NB, we co-treated 22Rv1 cells with NB and specific inhibitors of the above-mentioned MAPKs. […] As MEK1/2 kinase directly and exclusively activates ERK1/2, PD98039 inhibitor is often used as an ERK1/2 inhibitor [38]. Thus, an inactivation of MEK1/2 leads solely to an inhibition of ERK1/2 [38]. Since the inhibitors themselves exert cytotoxic effects in cancer cells, we used a Chou–Talalay method to distinguish between synergism, additive effects, or antagonistic effects of the particular MAPK inhibitor on the compound bioactivity. For this, using an MTT assay, we determined a cytotoxic effect on various concentrations of NB, MAPK inhibitors, and their combinations in 22Rv1 cells. The viability data were further analyzed using the SynergyFinder v. 2.0 software (Network Pharmacology for Precision Medicine in the Research Program of System Oncology, Faculty of Medicine at University of Helsinki, Helsinki, Finland) and a Zero interaction potency (ZIP) reference model (Figure 7).
The experiments were carried out as previously reported. […] 22Rv1 cells (6 × 10^3 cells/well in 96-well plates) were simultaneously treated with NB and docetaxel; or pretreated with MAPK inhibitors for 1 h following treatment with NB in the total media volume of 100 µL/well. Following 24 h of incubation, the viability of the cells treated with individual drugs as well as their combinations was determined using MTT assay. […] Red areas (positive δ-values) and green areas (negative δ-values) indicate synergism and antagonism, respectively.

The IC50 is the point on the concentration scale where inhibition reaches its midpoint. Lower therefore signals greater potency. As usually defined, the inhibition is the drop in the measured response relative to a control, in per cent.

Molecules are shown by their SMILES.

As for `COc1ccc(C2SSC34CC5(O)C(Cl)C=CC(O)C5ON3C(=O)C2N(C)C4=O)c(O)c1OC` (stereo not drawn) [NB, N-methylpretrichodermamide B], the caspase-3 cleavage result in the data set with caspase-3 in 22Rv1 cells was “caspase-3 cleavage that was observed”. Also, the LD50 with Artemia salina is listed as 4.8 µM. The IC50 was 0.143 ± 0.145 µM in the data set on VCaP; 11.1 ± 4.3 µM in the data set on MRC-9; 3.02 ± 2.5 µM in the data set on 22Rv1; 13 ± 2.69 µM in the data set with DU145; 6.03 ± 1.18 µM in the data set with PC3; 12.2 ± 2.97 µM in the data set on LNCaP. The IC50 in the data set with HEK293 stood at 9.3 ± 1.57 µM; in the data set on PNT2, 25.1 ± 5.92 µM; with RWPE-1, 16.4 ± 1.87 µM. The “ID50, cytotoxic activity in splenocytes” value in the data set on splenocytes was 62.1 µM. Further, the inhibition at 0.8 µM was determined as 28.5% in the data set on 22Rv1 cells (matrix with PD98059 (0 μM)), 29.1% in the data set on 22Rv1 cells (matrix with SB203580 (0 μM)) and 17.3% in the data set on 22Rv1 cells (matrix with SP600125 (0 μM)). Moreover, the inhibition at 3.1 µM with 22Rv1 cells (matrix with PD98059 (0 μM)) was 35.2%; with 22Rv1 cells (matrix with SB203580 (0 μM)) it was 33.3%; in the data set with 22Rv1 cells (matrix with SP600125 (0 μM)), 25.2%. The inhibition at 12.5 µM was determined as 43.4% in the data set with 22Rv1 cells (matrix with PD98059 (0 μM)), 48.2% in the data set with 22Rv1 cells (matrix with SB203580 (0 μM)) and 40.5% in the data set on 22Rv1 cells (matrix with SP600125 (0 μM)). The inhibition at 50 µM is 51.9% in the data set on 22Rv1 cells (matrix with PD98059 (0 μM)), 54.9% in the data set with 22Rv1 cells (matrix with SB203580 (0 μM)) and 41% with 22Rv1 cells (matrix with SP600125 (0 μM)).

The values above are taken from paper PMC9605374 (Marine Drugs, 2022).
